The values below come from paper PMC3917282, “Alkaloids from the Mangrove-Derived Actinomycete Jishengella endophytica 161111” (Marine Drugs, 2014).

Values after ≈ are worked out from the molar mass of the structure shown. Where two headings read alike, the source gives them in different places. Where only a bound is given, the exact number is not on record here.

For data set [1], the system named is influenza virus (A/Puerto Rico/8/34 (H1N1), PR/8). As to the kind of experiment: organism not typed. Format: cell-based. The following applies: for IC50: read-out: IC50 against H1N1 (CPE inhibition); for selectivity index (SI): H1N1 IC50 and MDCK CC50.
A short description of the next data set: in vitro. The note with it: dog.
Setting [2] is: MDCK cells infected with A/Puerto Rico/8/34 (H1N1), 48 h post-infection, crystal violet staining.

One may read the IC50 as the concentration that inhibits the measured activity by half. In the case of `OC[C@H](O)[C@@H](O)Cc1cncc(-c2ccco2)n1` [Compound 1, 2-(furan-2-yl)-6-(2S,3S,4-trihydroxybutyl)pyrazine], the IC50 in data set [1] (setting [2]) is > 50 µg/mL.
Consider `OC[C@H](O)[C@@H](O)Cc1cnc(-c2ccco2)cn1` [Compound 2, 2-(furan-2-yl)-5-(2S,3S,4-trihydroxybutyl)pyrazine], for which the IC50 in data set [1] (setting [2]) is > 50 µg/mL.
For the molecule `CC(C)C[C@H]1C(=O)OCc2ccc(C=O)n21` [Compound 3, (S)-4-isobutyl-3-oxo-3,4-dihydro-1H-pyrrolo[2,1-c][1,4]oxazine-6-carbaldehyde], in data set [1] (setting [2]), the half-maximal inhibitory concentration (IC50) is > 50 µg/mL.
Take `CC(C)[C@H]1C(=O)OCc2ccc(C=O)n21` [Compound 4, (S)-4-isopropyl-3-oxo-3,4-dihydro-1H-pyrrolo[2,1-c][1,4]oxazine-6-carbaldehyde]: the 50% inhibitory concentration (IC50) in data set [1] (setting [2]) is > 50 µg/mL.
Turning to `O=Cc1ccc2n1[C@@H](Cc1ccccc1)C(=O)OC2` [Compound 6, (S)-4-benzyl-3-oxo-3,4-dihydro-1H-pyrrolo[2,1-c][1,4]oxazine-6-carbaldehyde], in data set [1] (setting [2]), the IC50 is > 50 µg/mL.
`O=C(O)c1cc2c([nH]c3ccccc32)c(-c2ccc(CO)o2)n1` [Compound 7, flazin]: in data set [1] (setting [2]), the IC50 was > 50 µg/mL.
For the molecule `OCc1ccc(-c2nccc3c2[nH]c2ccccc23)o1` [Compound 8, perlolyrine], the CC50 at 36 h in the data set “in vitro” was 116 ± 12.1 µg/mL (≈ 440 µM). Further, in data set [1], the “selectivity index (SI)” value is 3.0. Moreover, the half-maximal inhibitory concentration (IC50) in data set [1] (setting [2]) was 38.3 µg/mL (≈ 145 µM).
With `Oc1nccc2c1[nH]c1ccccc12` [Compound 9, 1-hydroxy-β-carboline], the CC50 at 36 h in “in vitro” was 403 ± 31.4 µg/mL (≈ 2190 µM). Besides, the “selectivity index (SI)” value in data set [1] worked out at 16.1. Moreover, in data set [1] (setting [2]), the IC50 amounted to 25 µg/mL (≈ 136 µM).
For the molecule `Cc1cc2nc3[nH]c(=O)[nH]c(=O)c3nc2cc1C` [Compound 10, lumichrome], the IC50 in data set [1] (MDCK, 48 h) stood at 39.7 µg/mL (≈ 164 µM).
In the case of `O=Cc1c[nH]c2ccccc12` [Compound 11, 1H-indole-3-carboxaldehyde], the CC50 at 36 h in the data set “in vitro” came to 522 ± 24.5 µg/mL (≈ 3600 µM). Besides, in data set [1], the “selectivity index (SI)” value was 11.4. The IC50 in data set [1] (setting [2]) worked out at 45.9 µg/mL (≈ 316 µM).
With `O=C(CO)c1c[nH]c2ccccc12` [Compound 12, 2-hydroxy-1-(1H-indol-3-yl)ethanone], the IC50 in data set [1] (setting [2]) is > 50 µg/mL.
Same read-out and setting: under `COCc1ccc(C=O)[nH]1` [Compound 13, 5-(methoxymethyl)-1H-pyrrole-2-carbaldehyde] stands > 50 µg/mL.
As to `NC(=O)c1ncn([C@@H]2O[C@H](CO)[C@@H](O)[C@H]2O)n1` [Ribavirin, ribavirin, reference compound], the CC50 at 36 h in “in vitro” is 744 ± 18.5 µg/mL (≈ 3050 µM). For the same molecule, in data set [1], the “selectivity index (SI)” value was determined as 32.2. Besides, the IC50 in data set [1] (setting [2]) turned out to be 23.1 µg/mL (≈ 94.6 µM).
“(4S)-4-(2-methylbutyl)-3-oxo-3,4-dihydro-1H-pyrrolo[2,1-c][1,4]oxazine-6-carbaldehyde [Compound 5]”: in data set [1] (setting [2]), the “IC50 against H1N1 (CPE inhibition)” value is > 50 µg/mL.
